Source: US20110262355A1, “COMPOSITIONS COMPRISING ENZYME-CLEAVABLE OPIOID PRODRUGS AND INHIBITORS THEREOF” (priority 2010, published 2011)
Like-named read-outs stand apart in the source and are kept apart here.

How the values were obtained:
[1] = Pharmacokinetics of Compound KC-5 following PO administration to rats; conditions: rat; PO Compound KC-5
[2] = target: T1, human μ-opioid receptor (Homo sapiens, UniProt P35372); test: cell-based; parameters: expressed in transfected cells; host or cells: CHO; conditions: agonist response, cAMP (HTRF); recombinant CHO cells; 37° C., 10 min; three separate experiments
Method: This Example measures the ability of certain compounds of the present disclosure to effect an agonist response when exposed to recombinant human μ-opioid receptor expressed in CHO cells.
A. and Uhl, G. R. (1994). […] The control reaction included 1 μM DAMGO. The reaction mixtures were incubated at 37° C. for 10 min, and the reaction product was cyclic AMP (cAMP). The samples were submitted to homogeneous time resolved fluorescence (HTRF®). EC50 values (concentration producing a half-maximal specific response) were determined by non-linear regression fit using the Hillplot software.

[3] = rat
[4] = target: T2, trypsin (Bos taurus, UniProt P00760); test: In vitro trypsin-mediated release of drug from ketone-modified opioid prodrugs KC-3 to KC-6, effect of Compound 109; conditions: bovine, trypsin from bovine pancreas, h Average ± sd
T2 sequence (P00760 24-246): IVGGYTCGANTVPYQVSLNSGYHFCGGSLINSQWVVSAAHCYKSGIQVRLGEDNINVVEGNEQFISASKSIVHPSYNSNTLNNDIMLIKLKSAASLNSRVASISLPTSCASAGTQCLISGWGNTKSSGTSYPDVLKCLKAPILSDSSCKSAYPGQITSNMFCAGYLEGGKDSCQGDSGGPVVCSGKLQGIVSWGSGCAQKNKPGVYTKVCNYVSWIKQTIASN
From the text: (§1) Other reaction and sample treatment conditions were as described above.

[5] = target: T3, trypsin from bovine pancreas (Bos taurus, UniProt P00760); test: as above; conditions: 0.761 mM prodrug, 37° C., no trypsin inhibitor
T3 sequence (P00760 24-246): T2 sequence (P00760 24-246)
From the text: as §1

[6] = target: T3, trypsin from bovine pancreas; test: In vitro trypsin conversion of prodrugs to hydromorphone and inhibition by trypsin inhibitor; conditions: with trypsin inhibitor 3,089 uM Compound 109
Method: The reactions were conducted at 37° C. for 24 hr. Samples were collected at specified time points, transferred into 0.5% formic acid in acetonitrile to stop trypsin activity and stored at less than −70° C. until analysis by LC-MS/MS.
The results are expressed as half-life of prodrug when exposed to trypsin (i.e., Prodrug trypsin half-life) in hours and rate of formation of HM per unit of trypsin.

[7] = HM in rat plasma, PO, PC-4 20 mg/kg
[8] = Oral administration of Compound PC-4 and SBTI trypsin inhibitor to rats; conditions: HM in rat plasma, PC-4 20 mg/kg
[9] = Pharmacokinetics of Compound KC-6 following PO administration to rats; conditions: rat; PO Compound KC-6
[10] = male, Sprague Dawley, rat, in vivo
[11] = target: T2, trypsin; test: In vitro trypsin-mediated release of oxycodone from Compound KC-2, without or with Compound 109; assay type: biochemical, bovine; parameters: purchased Sigma-Aldrich T8003; host or cells: bovine pancreas; conditions: bovine, trypsin from bovine pancreas, read-out: Pro-drug trypsin half-life, h Average ± sd (converted)
From the text: (§2) The square symbols indicate the disappearance of Compound KC-2, and the triangle symbols depict the appearance of oxycodone, over time under the conditions described in this Example.

[12] = target: T3, trypsin from bovine pancreas; test: as above; assay type: biochemical; parameters: purchased Sigma-Aldrich T8003; host or cells: bovine pancreas; conditions: 0.761 mM KC-2; 0.0228 mg/mL trypsin; 37° C.; no trypsin inhibitor
From the text: as §2

[13] = Pharmacokinetics of oxycodone prodrug Compound KC-2 or oxycodone following PO administration to rats; assay type: in vivo; conditions: rat, KC-2 20 mg/kg vs oxycodone 10 mg/kg
[14] = target: T1, human μ-opioid receptor; test: In vitro human μ-opioid receptor binding assay
[15] = male, Sprague Dawley, rat, in vivo; remark: listed apart in the source
[16] = In vitro stability of Compound KC-2 to household chemicals and enzyme preparations; assay type: physicochemical; conditions: vodka, baking soda, WINDEX, vinegar (RT or 80° C.), GNC Super Digestive, tenderizer, subtilisn (RT); 1 or 24 hr
Method: Samples were incubated as described and aliquots removed at 1 hr and 24 hr and stabilized by adding each to a solution of 50% or 100% of 85% phosphoric acid solution to achieve a final pH of less than or equal to pH 4. The stabilized aliquots were then diluted 4- to 6-fold with water, vortex-mixed and applied to HPLC.

[17] = In vivo tolerability of Compound KC-3 in rats (IV); conditions: rat, Compound KC-3 97 μmol/kg, tolerated
Method: Male naïve Sprague-Dawley rats, 4 per dose, were used in the study. Rats were weighed, and then placed under a heat lamp for 15-20 minutes to dilate the lateral tail veins. […] Before dosing, rats were placed in Broome restrainers and the drug was introduced into one of the tail veins using a syringe and needle. […] Blood samples were collected 5 minutes post-dose via the saphenous vein. The rats were observed up to 24 hours.

[18] = male, Sprague Dawley, rat, in vivo; remark: listed apart in the source
[19] = In vitro stability of Compound KC-3 to household chemicals and enzyme preparations; assay type: physicochemical; conditions: vodka, baking soda, WINDEX, vinegar (RT or 80° C.), GNC Super Digestive, tenderizer, subtilisn (RT); 1 or 24 hr
Method: Samples were incubated as described. Aliquots were removed at 1 hr and 24 hr and stabilized by adding each to a solution of 50% or 100% of 85% phosphoric acid solution to achieve a final pH of less than or equal to pH 4. The stabilized aliquots were then diluted 4- to 6-fold with water, vortex-mixed and applied to HPLC.

[20] = male, Sprague Dawley, in vivo, iv, 10 mg/kg
[21] = pH 8, Pro-drug trypsin half-life, 0.761 mM prodrug, 241 BAEE U trypsin/mL, 37° C., no trypsin inhibitor

T1 sequence (P35372 whole entry): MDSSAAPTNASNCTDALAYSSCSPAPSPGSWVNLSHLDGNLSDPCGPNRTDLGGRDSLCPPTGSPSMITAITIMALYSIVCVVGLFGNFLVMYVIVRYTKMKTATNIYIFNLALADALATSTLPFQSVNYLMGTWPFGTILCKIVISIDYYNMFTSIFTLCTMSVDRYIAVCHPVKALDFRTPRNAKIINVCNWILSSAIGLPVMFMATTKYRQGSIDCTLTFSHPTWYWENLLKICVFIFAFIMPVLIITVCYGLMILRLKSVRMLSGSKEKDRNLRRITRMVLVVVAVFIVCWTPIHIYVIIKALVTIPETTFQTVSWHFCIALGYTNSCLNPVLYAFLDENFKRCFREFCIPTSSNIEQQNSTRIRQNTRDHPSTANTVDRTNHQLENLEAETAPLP

In the case of `COc1ccc2c3c1O[C@H]1C(OC(=O)N(CCCCCC(=O)O)CCNC(=O)[C@H](CCCNC(=N)N)NC(C)=O)=CC[C@@]4(O)[C@@H](C2)N(C)CC[C@]314` [Compound KC-5, 6-{[2-(2-Acetylamino-5-guanidino-pentanoylamino)-ethyl]-[(5R,9R,13S,14S)-4,5a-epoxy-6,7-didehydro-14-hydroxy-3-methoxy-17-methylmorphinan-6-oxy]-1-enyloxycarbonyl-amino}-hexanoic acid], the “oxycodone plasma concentrations compared to administration of oxycodone” value [1] is reported as “suppressed Cmax and AUC and delayed Tmax compared to administration of oxycodone”, the EC50 [2] is reported as 2000 nM and the plasma/CSF partitioning coefficient ([3]; male, Sprague Dawley, in vivo) is reported as 1,508. For the same compound, the “Compound conc. in CSF” value [3, 20] was 36.4 ng/mL, the “Compound conc. in Plasma” value [3, 20] was 54,900 ng/mL and the Plasma/CSF partitioning coefficient [3, 20] was 1,508. The “relative plasma/CSF partitioning coefficient of prodrug to oxycodone (fold less CSF penetrant)” value ([3]; IV, 1,508/4.8) was “about 316 fold”, the half-life at 0.761 mM [4, 21] was 72 ± 2.4 min and the “Rate of oxycodone formation, umol/h/BAEE U Average ± sd” value (“Rate … umol/h/BAEE U Average ± sd” below) ([5]; 241 BAEE U trypsin/mL) was 0.135 ± 0.005 umol/h/BAEE U.
In the case of `CCN(CCNC(=O)[C@H](CCCNC(=N)N)NC(C)=O)C(=O)Oc1ccc2c3c1OC1C(=O)CCC4C(C2)N(C)CCC314` (stereo partly drawn) [Compound PC-4, [2-((S)-2-Acetylamino-5-guanidino-pentanoylamino)-ethyl]-ethyl-carbamic acid hydromorphone ester], the “Rate of HM formation, umols/h/umol trypsin Average ± sd” value [6] is reported as 3.27 ± 1.87 umols/h/umol trypsin, the “Cmax (ng/mL HM)” value ([7]; Compound 101 0 mg/kg, 7 rats) is reported as 7.7 ± 2.3 ng/mL and the “Tmax” value ([7]; Compound 101 0 mg/kg, 7 rats) is reported as 2.3 h. For the same compound, the “Cmax (ng/mL HM)” value ([7]; Compound 101 10 mg/kg, 4 rats) was 4.8 ± 1.4 ng/mL, the “Tmax” value ([7]; Compound 101 10 mg/kg, 4 rats) was 6.0 h and the “Cmax (ng/mL HM)” value ([8]; SBTI 0 mg/kg, 7 rats) was 7.7 ± 2.3 ng/mL. The “Tmax” value ([8]; SBTI 0 mg/kg, 7 rats) was 2.3 h, the “Cmax (ng/mL HM)” value ([8]; SBTI 500 mg/kg, 4 rats) was 7.5 ± 2.1 ng/mL and the “Tmax” value ([8]; SBTI 500 mg/kg, 4 rats) was 6.5 h.
For `COc1ccc2c3c1O[C@H]1C(OC(=O)N(C)C[C@H](NC(=O)[C@H](CCCNC(=N)N)NC(C)=O)C(=O)N(C)CC(=O)O)=CC[C@@]4(O)[C@@H](C2)N(C)CC[C@]314` [Compound KC-6, ({(S)-2-((S)-2-Acetylamino-5-guanidino-pentanoylamino)-3-[(oxycodone-enyloxycarbonyl)-methyl-amino]-propionyl]-methyl-amino)-acetic acid], the EC50 [2] was 1800 nM, the “Rate … umol/h/BAEE U Average ± sd” value ([5]; 241 BAEE U trypsin/mL) was 0.0118 ± 0.0042 umol/h/BAEE U and the “Rate … umol/h/BAEE U Average ± sd” value ([5]; 4815 BAEE U trypsin/mL) was 0.00571 ± 0.0002 umol/h/BAEE U. The “oxycodone plasma concentrations compared to administration of oxycodone” value [9] was “suppressed Cmax and AUC and delayed Tmax compared to administration of oxycodone”, the “Compound conc. in CSF” value [10] was 74.1 ng/mL and the “Compound conc. in Plasma” value [10] was 60,400 ng/mL. For the same compound, the Plasma/CSF partitioning coefficient [10] was 815 and the plasma/CSF partitioning coefficient [10] was 815.
With `COc1ccc2c3c1O[C@H]1C(OC(=O)N(C)CCNC(=O)[C@H](CCCNC(=N)N)NC(C)=O)=CC[C@@]4(O)[C@@H](C2)N(C)CC[C@]314` [Compound KC-2, Oxycodone 6-(N-methyl-N-(2-N′-acetylarginylamino))ethylcarbamate] the half-life at 0.761 mM ([11]; pH 8, with Compound 109 (trypsin inhibitor) 2 µM ([…])) was 4.83 ± 4.92 days, the half-life at 0.761 mM ([11]; pH 8, 0.761 mM KC-2, 0.0228 mg/mL trypsin, 37° C., no trypsin inhibitor) was 0.235 ± 0.0108 days and the “Rate of oxycodone formation, umols/h/umol trypsin Average ± sd” value [12] was 37.4 ± 0.9 umols/h/umol trypsin. The “oxycodone plasma concentrations compared to administration of oxycodone” value [13] was “suppressed Cmax and delayed Tmax compared to administration of oxycodone”, the EC50 [2] was 490 nM and the IC50 [14] was 22 nM. For the same compound, the “Compound conc. in CSF” value [15] was 61.9 ng/mL, the “Compound conc. in Plasma” value [15] was 27,200 ng/mL and the Plasma/CSF partitioning coefficient [15] was 439. The conversion to oxycodone [16] was “less than 10%”.
In the case of `COc1ccc2c3c1O[C@H]1C(OC(=O)N(C)CCNC(=O)[C@H](CCCNC(=N)N)NC(=O)CC(=O)O)=CC[C@@]4(O)[C@@H](C2)N(C)CC[C@]314` [Compound KC-3, N-{(S)-4-guanidino-1-[2-(methyl-[(5R,9R,13S,14S)-4,5a-epoxy-6,7-didehydro-14-hydroxy-3-methoxy-17-methylmorphinan-6-oxy]carbonyl-amino)-ethylcarbamoyl]-butyl}-malonamic acid], the “time to recover to normal activity” value [17] is reported as ≤ 2 min, the EC50 [2] is reported as 1600 nM and the “Compound conc. in CSF” value [18] is reported as 34.1 ng/mL. For the same compound, the “Compound conc. in Plasma” value [18] was 59,225 ng/mL, the Plasma/CSF partitioning coefficient [18] was 1,737 and the half-life at 0.761 mM [4, 21] was 535 ± 115 min. For the same compound, the half-life at 0.761 mM ([4]; pH 8, with Compound 109 (trypsin inhibitor), 2 µM, Pro-drug trypsin half-life, with trypsin inhibitor Compound 109 2 uM) was 2600 ± 2440 min, the “Rate … umol/h/BAEE U Average ± sd” value ([5]; 241 BAEE U trypsin/mL) was 0.0684 ± 0.0009 umol/h/BAEE U and the conversion to oxycodone [19] was “less than 10%”.
